Reference: US20040053847A1, “Diastereomeric peptitdes and pharmaceutical compositions comprising them” (priority 2000, published 2004)
Converted amounts (≈) assume the structure as drawn. Square brackets hold non-standard residues; d marks the D form. Peptide text beside a SMILES is read from it.

Assays:
[1] = system: Acinetobacter baumannii ATCC 19606
Procedure: (§1) The antibacterial activity of the peptides was examined in sterile 96-well plates (Nunc F96 microtiter plates) in a final volume of 100 μl as follows: Aliquots (50 μl) of a suspension containing bacteria at concentration of 1×10^6 Colony-Forming Units (CFU)/ml in culture LB (Lauria broth) medium were added to 50 μl of water containing the peptide in serial 2-fold dilutions in water. Inhibition of growth was determined by measuring the absorbance at 600 nm with a Microplate autoreader E1309 (Bio-tek Instruments), after an incubation time of 18-20 h at 37° C. Antibacterial activities were expressed as the minimal inhibitory concentration (MIC), the concentration at which 100% inhibition of growth was observed after 18-20 h of incubation. […]
(§2) The antibacterial activity of the resulting liposomal diastereomeric peptide preparations were examined as described in Example 2 above. The MICs of liposomal peptide 9 in various lipid compositions and peptide/lipid ratios (as described above), or of liposomes at lipid compositions equivalent to the loaded_liposomes (not shown) or peptide 9 alone, were determined using the following bacteria: Acinetobacter baumannii ATCC 19606, and Staphylococcus aureus ATCC 6538P.

[2] = system: Staphylococcus aureus ATCC 6538P
Procedure: as §1, §2

[3] = system: B16 F10 mouse melanoma cell line; assay: In vitro anticancer activity, Trypan blue cell viability, LC50; conditions: 50% cell mortality after 24 h incubation, medium without serum
Procedure: The anticancer activity of the diastereomers 1, 2, 8, 9 and 10 was examined against B16 F10 mouse melanoma cell line. Melanoma cells were grown in RPMI-1640 medium supplemented with 10% fetal calf serum and antibiotics, at 37° C., in humidified atmosphere at 5% CO2 and 95% air. In addition, the cell-selectivity of the diastereomeric peptides was studied by examining their effect on NIH-3T3 normal fibroblasts cell line. NIH-3T3 mouse fibroblasts cells were grown in DMEM medium supplemented with 10% bovine calf serum and antibiotics under the same conditions as described above for B16 F10 mouse melanoma cells. Melanoma cells (2×10^5 cells ml^−1) or NIH-3T3 cells (2.5×10^5 cells ml^−1) were seeded in tissue culture plates (3.5 cm). After 48 h, cells were washed thrice with the corresponding medium. Then the cells were incubated at 37° C. in medium (without serum and antibiotics) in the presence of the tested diastereomeric peptides dissolved in PBS, at different concentrations. […] Following 24 h of incubation, the cells were harvested with trypsin (0.25%)-EDTA (0.05%) and centrifuiged for 10 min at 270×g. The precipitated cells were suspended in the corresponding medium and counted in a hemocytometer (Neubauer). Cell viability was determined by Trypan blue dye exclusion.

[4] = Cell selectivity, Trypan blue cell viability, LC50; assay type: cell-based, mouse; conditions: mouse, NIH-3T3 fibroblasts; 50% cell mortality after 24 h incubation, medium without serum; read-out: Lethal Concentration (LC50), NIH-3T3 fibroblasts
A549 lung carcinoma = assay type: cell-based, human; conditions: 24 h
Procedure: (§3) Aliquots of 100 μl of tumor cell suspension (about 2.5-5×10^3/well) were placed in 96-well microtiter plates in an atmosphere of 5% CO2 at 37° C. […] At the end of incubation, 20 μl of AlamarBlue 75% reagent was added to each well for another 6-hour incubation before detection of cell viability by fluorescence intensity. Fluorescence intensity was measured using a Spectraflour Plus plate reader with excitation at 530 nm and emission at 590 nm. The assays were used to detect changes in cell proliferation based on the ability of viable cells to cause AlamarBlue to change from its oxidized (non-fluorescent, blue) to a reduced (fluorescent, red) form. With the results obtained from the AlamarBlue reaction, cell proliferation can be quantified and metabolic activity of viable cells can be examined.

[5] = system: HT-29 colon adenocarcinoma; assay type: cell-based, human; conditions: 24 h
Procedure: as §3

[6] = system: MCF-7 breast adenocarcinoma; assay type: cell-based, human; conditions: 24 h
Procedure: as §3

[7] = system: PC-3 prostate adenocarcinoma; assay type: cell-based, human; conditions: 24 h
Procedure: as §3

[8] = system: SK-MEL- (ATCC HTB-70) malignant melanoma; assay type: cell-based, human; conditions: 24 h
Procedure: as §3

human breast MCF-7 cells = assay: Xenograft model of human breast MCF-7 cells in SCID mice; assay type: in vivo; conditions: mouse, in vivo
Procedure: The in-vivo anticancer assay was conducted on SCID (Severe Combined Immune Deficiency) mice using the xenograft model of human breast MCF-7 cells. Groups of 6 SCID female mice weighing 18-20 g (6-week old), bred in an animal isolator (IVC racks under specific pathogen-free (SPF) conditions at 24±1° C., were used. Viable human breast carcinoma MCF-7 cells (ATCC HTB-22−1×10^7 cells in 0.2 ml of PBS) were injected subcutaneously (s.c.) into the dorsal side of SCID mice. 50 μg/mouse of estradiol benzoate was injected s.c. weekly as a supplement for 4 weeks. […] Mitomycin at a dose of 2 mg/kg was administered intraperitoneally (IP) twice a week for 5 doses. The tumor size, body weight and the signs of overt animal toxicity after each treatment were recorded and observed. At the end of the experiment, hematological analysis was carried out.

[9] = In vivo toxicity, single i.v. bolus injection in CD1 mice; set-up: species or system CD1 male mice
Procedure: The in vivo toxicity of the liposomal peptide 9 preparation composed of the lipids PC/PG (9:1 w/w) at a 10:1 w/w lipid/peptide ratio was examined. Groups of 5 CD1 male mice weighing 24-27 g (5-week old), bred in an animal isolator (IVC racks) under specific pathogen-free (SPF) conditions at 24±1° C., were used. Twelve mg/kg liposomal peptide 9 or peptide 9 alone dissolved in PBS in a dosing volume of 10 ml/kg, were administered by single i.v. bolus injection via the mice tail vein. In parallel, control groups received i.v. injections of equivalent liposomes alone or PBS in a dosing volume of 10 ml/kg.

CC(C)C[C@H](NC(=O)[C@H](CCCNC(=N)N)NC(=O)[C@@H](CC(C)C)NC(=O)[C@H](CC(C)C)NC(=O)[C@@H](N)CCCCN)C(=O)N[C@@H](CC(C)C)C(=O)N[C@H](CCCCN)C(=O)N[C@H](CCCCN)C(=O)N[C@@H](CC(C)C)C(=O)N[C@H](CC(C)C)C(=O)N[C@@H](CCCNC(=N)N)C(=O)N[C@@H](CC(C)C)C(=O)N[C@H](CC(C)C)C(=O)N[C@@H](CC(C)C)C(=O)N[C@@H](CCCCN)C(N)=O [Peptide 9, [D]-L^3,10,13,K^7,8-K4R2L9] (H-KL[dL]RLL[dK][dK]L[dL]RL[dL]LK-NH2)
MIC of liposomal peptide 9, A. baumannii [1]: 3.1 mg/L
MIC of liposomal peptide 9, S. aureus [2]: 12.5 mg/L
Lethal Concentration (LC50), B16-F10 melanoma [3]: 2 mg/L
CC50 at 24 h [4]: 30 mg/L (≈ 16.1 µM)
IC50 (A549 lung carcinoma): 1.4 µM
IC50 [5]: 2.2 µM
IC50 [6]: 3.3 µM
IC50 [7]: 1.6 µM
IC50 [8]: 1.2 µM
PLT (human breast MCF-7 cells): 1.31e+06 µL⁻¹
RBC (human breast MCF-7 cells): 11.18 ± 0.11 × 10^6/μl
Reduction of RBC (human breast MCF-7 cells): only a slight reduction in RBC
Reduction of WBC and platelets (human breast MCF-7 cells): did not cause a reduction in WBC and platelets
WBC (human breast MCF-7 cells): 2220 µL⁻¹
Mortality ([9]; 12 mg/kg injected i.v.): 80%
Incidence of mortality ([9]; 12 mg/kg single i.v. injection): 4/5
